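Growth conditions: 96-well plates. Treatment: test compound, 48 hours, 5 concentrations. Analysis: linear interpolation between bracketing concentrations; unreached endpoints set to highest concentration. TGI marks complete inhibition of growth.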
Key:
Test in all cases: NCI-60 cell line screen, 48 h
BT-549 breast = tested on: BT-549 breast
HT29 colon = tested on: HT29 colon
IGROV1 ovarian = tested on: IGROV1 ovarian
MDA-N = tested on: MDA-N
MOLT-4 leukemia = tested on: MOLT-4 leukemia
NCI-H522 lung = tested on: NCI-H522 lung
SF-268 CNS = tested on: SF-268 CNS
SK-MEL-2 melanoma = tested on: SK-MEL-2 melanoma
SK-MEL-5 melanoma = tested on: SK-MEL-5 melanoma
SN12C renal = tested on: SN12C renal
SR leukemia = tested on: SR leukemia

Measured: TGI

Cc1ccccc1OC(C)C(=O)NN1C(=O)CSC1c1ccccc1 (stereo not drawn)
48.8 µM: SR leukemia
25.3 µM: MOLT-4 leukemia
> 100 µM: all other assays above

N#CC(NCc1cccc(CNC(C#N)c2ccccc2)c1)c1ccccc1 (stereo not drawn)
39 µM: MOLT-4 leukemia
41.8 µM: IGROV1 ovarian
30.8 µM: HT29 colon
87 µM: BT-549 breast
> 100 µM: all other assays above

Cc1ccnc(NS(=O)(=O)c2ccc(N=[N+]=[N-])cc2)n1
> 60.4 µM: MOLT-4 leukemia
> 100 µM: all other assays above
